From ChEMBL document CHEMBL4190214, “Identification of BMI1 Promoter Inhibitors from Beaumontia murtonii and Eugenia operculata” (J Nat Prod, 2017) come the findings set out here.

Each structure is given as a SMILES string.

Experiment [1] can be described thus: Inhibition of BMI1 promoter (unknown origin) expressed in HEK293T cells after 24 hrs by luciferase reporter gene assay. It is filed as cell-based. The note with it: HEK-293T.
Experiment [2] concerns Huh-7. Nature of the experiment: Inhibition of self-renewal of human HuH7 cells assessed as reduction in EpCAM positive fraction at 50 uM after 20 mins by propidium iodide staining-based flow cytometric analysis. The note with it: Huh-7, 20 min. The format is functional.
The subject of experiment [3] is Huh-7. Nature of the experiment: Inhibition of self-renewal of human HuH7 cells assessed as EpCAM positive fraction at 5 uM after 20 mins by propidium iodide staining-based flow cytometric analysis (reference value: 91.2 %). The format is functional. The arrangement: scale not given: the % may be the effect or the level left.
The subject of a further experiment is HEK293. Briefly: Cytotoxicity against HEK293 cells after 24 hrs by fluorescein diacetate staining-based fluorescence assay. It is filed as cell-based. The note with it: Homo sapiens, HEK293, 24 h.
Experiment [4] relates to Huh-7. Nature of the experiment: Inhibition of self-renewal of human HuH7 cells assessed as EpCAM negative fraction at 5 uM after 20 mins by propidium iodide staining-based flow cytometric analysis (reference value: 8.8 %). The format is functional. The arrangement: scale not given: the % may be the effect or the level left.
In a further experiment the test system is DU-145. Nature of the experiment: Cytotoxicity against human DU145 cells after 24 hrs by fluorescein diacetate staining-based fluorescence assay. The settings on record: DU-145, 24 h. The format is functional, cell-based.
The test system of the next experiment is HCT-116. Briefly: Cytotoxicity against human HCT116 cells after 24 hrs by fluorescein diacetate staining-based fluorescence assay. The format is functional, cell-based. The settings on record: HCT-116, 24 h.
The subject of experiment [5] is Huh-7. Briefly: Inhibition of self-renewal of human HuH7 cells assessed as EpCAM positive fraction at 0.5 uM after 20 mins by propidium iodide staining-based flow cytometric analysis (reference value: 91.2 %). It is filed as functional. The arrangement: scale not given: the % may be the effect or the level left.
The test system of experiment [6] is Huh-7. Nature of the experiment: Inhibition of self-renewal capacity of human EpCAM-positive HuH7 cells assessed as reduction in sphere formation after 6 days. It is filed as functional, cell-based.
Experiment [7] deals with Huh-7. Nature of the experiment: Inhibition of self-renewal of human HuH7 cells assessed as EpCAM negative fraction at 0.5 uM after 20 mins by propidium iodide staining-based flow cytometric analysis (reference value: 8.8 %). It is filed as functional. The arrangement: scale not given: the % may be the effect or the level left.
A further experiment is filed under the species Homo sapiens. Nature of the experiment: Inhibition of BMI1 promoter in human HCT116 cells assessed as decrease in BMI1 protein expression levels after 24 hrs by Western blot analysis. It is filed as cell-based.

`C=C(C)[C@@H]1CC[C@]2(C(=O)OC)CC[C@]3(C(=O)O)[C@H](CC[C@@H]4[C@@]5(C)CC[C@H](O)C(C)(C)[C@@H]5CC[C@]43C)[C@@H]12` came in with a half-maximal inhibitory concentration (IC50) in [1] of 19500 nM.

As for `O=[N+]([O-])c1ccc(Nc2ccccc2-c2ccccc2)c2nonc12`, in the experiment with Huh-7 [2], the inhibition at 50 µM was 30 to 40%.

For the compound `CO[C@H]1C[C@H](O[C@H]2CC[C@@]3(C)[C@H](CC[C@@H]4[C@@H]3CC[C@]3(C)[C@@H](C5=CC(=O)OC5)CC[C@]43O)C2)O[C@H](C)[C@H]1O`, the IC50 in experiment [1] came to 98 nM.

With `CC1(C)CC[C@]2(C(=O)O)CC[C@]3(C)C(=CC[C@@H]4[C@@]5(C)C[C@@H](O)[C@H](O)C(C)(C)[C@@H]5CC[C@]43C)[C@@H]2C1` [MASLINIC ACID], in [1], half-maximal inhibition (IC50) required 22700 nM.

In experiment [1], `C[C@]12CC[C@H](O)C[C@H]1CC[C@@H]1[C@@H]2CC[C@]2(C)[C@@H](C3=CC(=O)OC3)CC[C@]12O` [DIGITOXIGENIN] registered an IC50 of 1700 nM.

Turning to `CO[C@H]1C[C@@H](O[C@H]2CC[C@@]3(C)[C@H](CC[C@@H]4[C@@H]3CC[C@]3(C)[C@@H](C5=CC(=O)OC5)CC[C@]43O)C2)O[C@@H](C)[C@@H]1O`, the IC50 in [1] was determined as 450 nM.

For `CO[C@@H]1C[C@H](O[C@H]2CC[C@@]3(C)[C@H](CC[C@@H]4[C@@H]3CC[C@]3(C)[C@@H](C5=CC(=O)OC5)CC[C@]43O)C2)O[C@@H](C)[C@@H]1O`, the half-inhibitory concentration (IC50) in [1] worked out at 93 nM; with HEK293 it was 5000 nM; in the experiment with DU-145, 140 nM; with HCT-116 it was 58 nM. The Activity in the experiment on Huh-7 [3] was found to be 72.9%; with Huh-7 [4], 27.1%; with Huh-7 [5] it was 80.1%; in the experiment on Huh-7 [7], 19.9%. The inhibition entry with Huh-7 [6] and in the experiment filed under Homo sapiens was “Dose-dependent effect” in each case.
